For data set [1] the following is noted: at 20° C.; cited from earlier work.
For data set [2] the following is noted: mouse, in vivo, 4 mg/kg, 5 days.
Procedure: The brain and plasma levels of (TDF) after the administration of the composition to mice at the dose of 4 mg/kg by the oral (n=6) or the nasal route (n=6) over 5 days have been measured and are shown in the Table below:

The text below walks through data of patent US20230255986A1, “PHARMACEUTICAL COMPOSITIONS FOR TREATING INFECTIONS BY A NEUROTROPIC VIRUS” (priority 2020, published 2023).

Structures can show the parent of a compound that is named as a salt.

Regarding `CC(C)OC(=O)[C@H](C)N[P@](=O)(CO[C@H](C)Cn1cnc2c(N)ncnc21)Oc1ccccc1` [Tenofovir alafenamide], in data set [1], the water solubility result was “about 4.86 mg/ml”.

Take `CC(C)OC(=O)OCOP(=O)(CO[C@H](C)Cn1cnc2c(N)ncnc21)OCOC(=O)OC(C)C` [Tenofovir disoproxil fumarate]: the “brain concentration, nasal versus oral administration” value in data set [2] is listed as “more than 4 fold”.
